In this test the target is WDR5 (Δ23, residues 24-334) (Homo sapiens, UniProt P61964). The experiment in a line: biochemical. The settings on record: Kd (M), FPA-based binding affinity at the WDR5 WIN site; IC50 converted to Kd by modified Cheng-Prusoff equation; average of two experiments.

Molecule `CCC(NC(=O)Cc1ccc(F)c(Cl)c1)c1cccc(-c2cn3c(n2)CCC3)c1` (stereo not drawn) [B217] displayed a Kd of 3.2e-08 M. This lies in the double-digit nanomolar range.
The result for `COc1cc(C(=O)N(Cc2cc(-c3cn4c(n3)CCC4)ccc2N2CCOCC2)CC2CCCCC2)ccc1C` [B198] reads 1.59e-07 M; that for `COc1ccc(C(=O)N(Cc2cccc(-c3cn4c(n3)CCC4)c2)CC2CC2)cc1OC` [B59], 6.18e-07 M.
The result for `COc1cc(C(=O)N(Cc2cc(-c3cn4c(n3)CCC4)ccc2N2CCOCC2)CC2CCOCC2)ccc1C` [B204] reads 2.6e-08 M; that for `CC(NC(=O)Cc1ccc(F)c(Cl)c1)c1cc(-c2cn3c(n2)CCC3)ccc1N1CCOCC1` (stereo not drawn) [B214], 4e-08 M.
`O=C(CCc1ccccc1)N(Cc1cccc(-c2cn3c(n2)CCC3)c1)CC1CC1` [B19] showed a Kd of 1.82e-06 M.
Take `CC(C)N(Cc1cc(-c2cn3c(n2)CCC3)ccc1OC1CCC1)C(=O)Cc1ccc(Cl)c(Cl)c1` [B148]: binding was characterised by a dissociation constant (Kd) of 1.4e-08 M.
Take `CC(=O)N1CCCC(C(=O)N(Cc2cc(-c3cn4c(n3)CCC4)ccc2N2CCOCC2)CC2CC2)C1` (stereo not drawn) [B176]: the Kd stood at 6.3e-08 M.
The result for `Cc1ccc(C(=O)NCc2cccc(-c3cn4c(n3)CCC4)c2)cc1C` [B21, N-(3-(6,7-Dihydro-5H-pyrrolo[1,2-a]imidazol-2-yl)benzyl)-3,4-dimethylbenzamide] reads 7.04e-07 M.
In turn, `O=C(NCc1cccc(-c2cn3c(n2)CCC3)c1)c1ccc2c(c1)OCO2` [B56] returned a Kd of 1.18e-06 M.
The result for `COC1CCN(c2ccc(-c3cn4c(n3)CCC4)cc2CNC(=O)Cc2ccc(Cl)c(Cl)c2)C1` (stereo not drawn) [B177] reads 2.08e-06 M.
`COc1ccc(C(=O)N(Cc2cc(Cl)cc(-c3cn4c(n3)CCC4)c2)CC2CC2)cc1OC` [B46] gave a dissociation constant Kd of 1.25e-07 M.
As to `CC(C)N(Cc1cccc(-c2cn3c(n2)CCC3)c1)C(=O)Cc1cc(Cl)cc(Cl)c1` [B73], the Kd turned out to be 1.9e-06 M.
Consider `C[C@H](C(=O)N(Cc1cccc(-c2cn3c(n2)CCC3)c1)CC1CC1)c1ccccc1` [B61], for which the Kd came to 6.45e-07 M. This Kd is about 2.9-fold lower than that of the molecule before.
In turn, `COc1cccc(C(=O)N(Cc2cccc(-c3cn4c(n3)CCC4)c2)CC2CCCCC2)c1` [B36] yielded a dissociation constant (Kd) of 2.58e-07 M. Compared with the last molecule, the Kd is about 2.5-fold lower.
The result for `O=C(NCc1cccc(-c2cn3c(n2)CCC3)c1)c1ccc(F)cc1` [B3] reads 5e-06 M; that for `CS(=O)(=O)N1CCCCC1C(=O)NCc1cccc(-c2cn3c(n2)CCC3)c1` (stereo not drawn) [B182], 1.09e-06 M.
The result for `O=C(Cc1ccc2c(c1)CCO2)NCc1cccc(-c2cn3c(n2)CCC3)c1` [B153] reads 6.04e-07 M; that for `COc1cccc(C(=O)NC(C)c2cccc(-c3cn4c(n3)CCC4)c2)c1` (stereo not drawn) [B205], 2.3e-08 M.
The result for `COc1cccc(C(=O)N(Cc2cc(-c3cn4c(n3)CCC4)ccc2F)CC2CC2)c1` [B90] reads 4.24e-05 M; that for `O=C(CC1CCNCC1)NCc1cccc(-c2cn3c(n2)CCC3)c1` [B150], 1e-05 M; that for `COc1ccc(C(=O)N(Cc2cccc(-c3cn4c(n3)CCC4)c2)Cc2ccc(F)c(F)c2)cc1OC` [B63], 7.51e-07 M.
For the molecule `O=C(Cc1ccc(F)c(Cl)c1)NCc1cccc(-c2cn3c(n2)CCC3)c1` [B155], the Kd is 1.05e-07 M.
The result for `COc1cccc(C(=O)NCc2cc(-c3cn4c(n3)CCC4)ccc2N2CC(C)OC(C)C2)c1` (stereo not drawn) [B180] reads 3.07e-07 M; that for `COc1ccc(C(=O)N(CCc2ccccc2)Cc2cccc(-c3cn4c(n3)CCC4)c2)cc1OC` [B57], 4.46e-06 M; that for `O=C(Cc1cc(Cl)cc(Cl)c1)N(Cc1cccc(-c2cn3c(n2)CCC3)c1)CC1CC1` [B60, N-(Cyclopropylmethyl)-2-(3,5-dichlorophenyl)-N-(3-(6,7-dihydro-5H-pyrrolo[1,2-a]imidazol-2-yl)benzyl)acetamide], 2.85e-07 M.
On to `O=C(Cc1c[nH]c2ccccc12)NCc1cccc(-c2cn3c(n2)CCC3)c1` [B122], for which binding was put at a Kd of 2.64e-07 M.
The result for `O=C(NCc1cccc(-c2cn3c(n2)CCC3)c1)C1CCCN(C(=O)CC(F)(F)F)C1` (stereo not drawn) [B184] reads 5.8e-08 M; that for `COc1cccc(C(=O)N(Cc2ccccc2)Cc2cccc(-c3cn4c(n3)CCC4)c2)c1` [B35], 2.43e-07 M.
The result for `O=C(Cc1cc(C(F)(F)F)cc(C(F)(F)F)c1)NCc1cccc(-c2cn3c(n2)CCC3)c1` [B134] reads 4.59e-06 M.
The result for `COc1cc(C(=O)NC(C)c2cc(-c3cn4c(n3)CCC4)ccc2OC2CCC2)ccc1C` (stereo not drawn) [B207] reads 1.6e-08 M.
In turn, `O=C(Cc1cccc(Cl)c1)NCc1cccc(-c2cn3c(n2)CCC3)c1` [B133] had an equilibrium dissociation constant (Kd) of 6e-06 M.
On to `O=C(Nc1cc(Cl)cc(Cl)c1)N(Cc1cccc(-c2cn3c(n2)CCC3)c1)CC1CC1` [B50], for which binding was put at a Kd of 4.8e-07 M.
The result for `CCOc1cccc(C(=O)N(Cc2cccc(-c3cn4c(n3)CCC4)c2)CC2CC2)c1` [B79] reads 4.91e-07 M; that for `O=C(Cc1cccnc1)NCc1cccc(-c2cn3c(n2)CCC3)c1` [B152], 1.23e-06 M.
In the case of `O=C(Cc1cccc(OC(F)(F)F)c1)NCc1cccc(-c2cn3c(n2)CCC3)c1` [B137], the Kd is 2.6e-08 M.
The result for `O=C(Cc1ccc(Cl)c(Cl)c1)N(Cc1cc(-c2cn3c(n2)CCC3)ccc1N1CCOCC1)CC1CC1` [B175, N-(Cyclopropylmethyl)-2-(3,4-dichlorophenyl)-N-(5-(6,7-dihydro-5H-pyrrolo[1,2-a]imidazol-2-yl)-2-morpholinobenzyl)acetamide] reads 5.2e-08 M; that for `CC(C)N1CCCC(C(=O)NCc2cc(-c3cn4c(n3)CCC4)ccc2OC2CCC2)C1` (stereo not drawn) [B199], 6.3e-06 M; that for `CCC(C)N(Cc1cccc(-c2cn3c(n2)CCC3)c1)C(=O)c1cccc(OC)c1` (stereo not drawn) [B86], 4.25e-07 M.
Molecule `O=C(NCc1cccc(-c2cn3c(n2)CCC3)c1)C1CCCNC1` (stereo not drawn) [B43] displayed a Kd of 6.3e-07 M.
The result for `CCC(=O)N1CCCC(C(=O)NC(C)c2cccc(-c3cn4c(n3)CCC4)c2)C1` (stereo not drawn) [B211] reads 1.1e-08 M; that for `CC(=O)N1CCCC(C(=O)NC(C)c2cc(-c3cn4c(n3)CCC4)ccc2OC2CCC2)C1` (stereo not drawn) [B208], 2.2e-08 M; that for `COc1cc(C(=O)N(Cc2cc(-c3cn4c(n3)CCC4)ccc2N2CCCC2)CC2CC2)ccc1C` [B179], 3.62e-06 M.
The result for `CC(=O)N1CCCC(C(=O)NCc2cc(-c3cn4c(n3)CCC4)ccc2N2CCOCC2)C1` (stereo not drawn) [B156] reads 6.8e-08 M; that for `O=C(/C=C/c1ccccc1)NCc1cccc(-c2cn3c(n2)CCC3)c1` [B12], 1.19e-06 M; that for `NC(C(=O)NCc1cc(-c2cn3c(n2)CCC3)ccc1N1CCOCC1)c1ccccc1` (stereo not drawn) [B218], 1.79e-07 M.
The result for `O=C(NCc1ccccc1)NCc1cccc(-c2cn3c(n2)CCC3)c1` [B34] reads 2.71e-06 M; that for `O=C(Cc1ccncc1)NCc1cccc(-c2cn3c(n2)CCC3)c1` [B123], 2.2e-08 M; that for `O=C(C1CC1c1ccccc1)N(Cc1cccc(-c2cn3c(n2)CCC3)c1)CC1CC1` (stereo not drawn) [B51], 4.85e-07 M.
Regarding `COc1ccc(C(=O)N(Cc2cccc(-c3cn4c(n3)CCC4)c2)C(C)c2cccc(Cl)c2)cc1OC` (stereo not drawn) [B68], the affinity, expressed as Kd, was 3.72e-06 M. Compared with the last molecule, the Kd is about 7.7-fold higher.
The result for `O=C(Cc1ccc(F)c(Cl)c1)N(Cc1cc(-c2cn3c(n2)CCC3)ccc1N1CCOCC1)CC1CCOCC1` [B202] reads 4.56e-07 M; that for `O=C(NCc1cccc(-c2cn3c(n2)CCC3)c1)Nc1cc(Cl)cc(Cl)c1` [B33], 3.52e-06 M; that for `CCC(=O)N1CCCC(C(=O)NCc2cccc(-c3cn4c(n3)CCC4)c2)C1` (stereo not drawn) [B181], 1e-05 M.
The result for `CCC(NC(=O)c1ccc(C)c(OC)c1)c1cccc(-c2cn3c(n2)CCC3)c1` (stereo not drawn) [B215] reads 1.7e-08 M.

As a reminder, the Kd is the constant that tells how readily two partners part at equilibrium. A higher Kd goes with a looser complex.

These data come from patent publication US10160763B2, “WDR5 inhibitors and modulators” (Vanderbilt University, priority 2016, dated 2018).
